Measurements taken from ChEMBL document CHEMBL4311992, “Discovery of 3-(((9H-purin-6-yl)amino)methyl)-4,6-dimethylpyridin-2(1H)-one derivatives as novel tubulin polymerization inhibitors for treatment of cancer” (Eur J Med Chem, 2019).

Experiments:
MDA-MB-231 = assay: Antiproliferative activity against human MDA-MB-231 cells assessed as reduction in cell viability after 72 hrs by MTT assay; type: functional, cell-based; settings: MDA-MB-231, 72 h
[1] = molecular target: Mitogen-activated protein kinase 14 (Homo sapiens) (UniProt Q16539); assay: Inhibition of recombinant full-length human SAPK2a assessed as residual activity at 10 uM using myelin basic protein as substrate measured after 40 mins in presence of [gamma33P]ATP by scintillation counting method
[2] = tested on: Ribosomal protein S6 kinase alpha-1 (Rattus norvegicus), Q63531 [S637N,G697A]; assay: Inhibition of recombinant full-length rat Rsk1 S637N/G697A mutant assessed as residual activity at 10 uM using KKKNRTLSVA as substrate measured after 40 mins in presence of [gamma33P]ATP by scintillation counting method
Chain of Ribosomal protein S6 kinase alpha-1 (Rattus norvegicus), Q63531 [S637N,G697A] (Q63531 whole entry S637N/G697A): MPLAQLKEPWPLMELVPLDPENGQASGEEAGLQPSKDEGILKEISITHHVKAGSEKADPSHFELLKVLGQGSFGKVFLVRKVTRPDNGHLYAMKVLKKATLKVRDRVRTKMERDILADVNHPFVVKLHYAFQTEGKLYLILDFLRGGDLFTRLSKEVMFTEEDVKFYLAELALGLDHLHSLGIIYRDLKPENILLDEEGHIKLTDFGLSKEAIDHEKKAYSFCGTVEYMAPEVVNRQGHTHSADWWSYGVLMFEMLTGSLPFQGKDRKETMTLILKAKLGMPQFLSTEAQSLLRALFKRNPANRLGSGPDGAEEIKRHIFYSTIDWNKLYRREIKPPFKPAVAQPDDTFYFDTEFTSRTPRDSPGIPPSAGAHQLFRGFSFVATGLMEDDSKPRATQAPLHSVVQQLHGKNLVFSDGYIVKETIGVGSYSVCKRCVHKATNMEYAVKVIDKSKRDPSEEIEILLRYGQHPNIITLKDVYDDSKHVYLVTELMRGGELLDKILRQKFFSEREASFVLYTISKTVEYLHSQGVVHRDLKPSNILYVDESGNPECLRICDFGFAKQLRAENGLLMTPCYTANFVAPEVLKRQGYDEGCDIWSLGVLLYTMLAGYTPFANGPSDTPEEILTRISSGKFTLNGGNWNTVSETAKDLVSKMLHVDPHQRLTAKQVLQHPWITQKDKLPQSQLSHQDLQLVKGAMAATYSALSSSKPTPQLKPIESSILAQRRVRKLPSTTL

[3] = molecular target: Protein kinase C zeta type (Homo sapiens) (UniProt Q05513); assay: Inhibition of recombinant human PKCzeta (2 to end residues) assessed as residual activity at 10 uM using ERMRPRKRQGSVRRRV as substrate measured after 40 mins in presence of [gamma33P]ATP by scintillation counting method
Chain of Protein kinase C zeta type (Homo sapiens) (Q05513 whole entry): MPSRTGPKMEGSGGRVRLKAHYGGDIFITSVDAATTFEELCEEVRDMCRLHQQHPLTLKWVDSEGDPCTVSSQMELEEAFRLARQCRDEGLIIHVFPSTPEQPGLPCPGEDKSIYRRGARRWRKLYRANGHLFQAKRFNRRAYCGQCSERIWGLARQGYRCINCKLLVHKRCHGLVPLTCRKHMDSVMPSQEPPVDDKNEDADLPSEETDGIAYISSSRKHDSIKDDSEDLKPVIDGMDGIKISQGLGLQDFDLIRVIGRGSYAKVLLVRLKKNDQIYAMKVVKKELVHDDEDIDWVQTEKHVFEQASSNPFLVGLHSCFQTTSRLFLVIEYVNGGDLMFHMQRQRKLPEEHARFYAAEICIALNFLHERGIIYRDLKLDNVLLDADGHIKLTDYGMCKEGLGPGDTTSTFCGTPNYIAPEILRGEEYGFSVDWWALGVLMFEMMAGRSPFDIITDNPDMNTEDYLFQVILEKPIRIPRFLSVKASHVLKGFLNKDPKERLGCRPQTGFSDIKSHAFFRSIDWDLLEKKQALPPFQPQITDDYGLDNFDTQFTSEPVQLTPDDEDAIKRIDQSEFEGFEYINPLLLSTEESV

[4] = tested on: Hepatocyte growth factor receptor (Homo sapiens), P08581 [Y1230H]; assay: Inhibition of recombinant human MET A1209G/V1290L/Y1248H mutant (974 to end residues) assessed as residual activity at 10 uM using KKKGQEEEYVFIE as substrate measured after 40 mins in presence of [gamma33P]ATP by scintillation counting method
[5] = tested on: Hepatocyte growth factor receptor (Homo sapiens), P08581 [M1250T]; assay: Inhibition of recombinant human MET A1209G/V1290L/M1268T mutant (974 to end residues) assessed as residual activity at 10 uM using KKKGQEEEYVFIE as substrate measured after 40 mins in presence of [gamma33P]ATP by scintillation counting method
[6] = molecular target: Insulin receptor-related protein (Homo sapiens) (UniProt P14616); assay: Inhibition of recombinant human IRR (943 to 1266 residues) assessed as residual activity at 10 uM using myelin basic protein as substrate measured after 40 mins in presence of [gamma33P]ATP by scintillation counting method
Homo sapiens [7] = species: Homo sapiens; assay: Inhibition of recombinant full-length human PI3K p120gamma R459Q mutant assessed as residual activity at 10 uM using phosphatidylinositol-4, 5-bisphosphate as substrate measured after 40 mins by fluorescence assay
Mus musculus = species: Mus musculus; assay: Inhibition of recombinant full-length mouse PI3K p110alpha/p85alpha E545K mutant assessed as residual activity at 10 uM using phosphatidylinositol-4, 5-bisphosphate as substrate measured after 40 mins by HTRF assay
[8] = molecular target: Protein-tyrosine kinase 6 (Homo sapiens) (UniProt Q13882); assay: Inhibition of full-length recombinant human BRK assessed as residual activity at 10 uM using poly(Glu, Tyr) 4:1 as substrate measured after 40 mins in presence of [gamma33P]ATP by scintillation counting method
Homo sapiens [9] = species: Homo sapiens; assay: Inhibition of recombinant human BrSK2 S251I mutant (2 to end residues) assessed as residual activity at 10 uM using KKLNRTLSFAEPG as substrate measured after 40 mins in presence of [gamma33P]ATP by scintillation counting method
[10] = molecular target: Tyrosine-protein kinase BTK (Homo sapiens) (UniProt Q06187); assay: Inhibition of full-length recombinant human BTK assessed as residual activity at 10 uM using KVEKIGEGTYGVVYK as substrate measured after 40 mins in presence of [gamma33P]ATP by scintillation counting method
Chain of Tyrosine-protein kinase BTK (Homo sapiens) (Q06187 whole entry): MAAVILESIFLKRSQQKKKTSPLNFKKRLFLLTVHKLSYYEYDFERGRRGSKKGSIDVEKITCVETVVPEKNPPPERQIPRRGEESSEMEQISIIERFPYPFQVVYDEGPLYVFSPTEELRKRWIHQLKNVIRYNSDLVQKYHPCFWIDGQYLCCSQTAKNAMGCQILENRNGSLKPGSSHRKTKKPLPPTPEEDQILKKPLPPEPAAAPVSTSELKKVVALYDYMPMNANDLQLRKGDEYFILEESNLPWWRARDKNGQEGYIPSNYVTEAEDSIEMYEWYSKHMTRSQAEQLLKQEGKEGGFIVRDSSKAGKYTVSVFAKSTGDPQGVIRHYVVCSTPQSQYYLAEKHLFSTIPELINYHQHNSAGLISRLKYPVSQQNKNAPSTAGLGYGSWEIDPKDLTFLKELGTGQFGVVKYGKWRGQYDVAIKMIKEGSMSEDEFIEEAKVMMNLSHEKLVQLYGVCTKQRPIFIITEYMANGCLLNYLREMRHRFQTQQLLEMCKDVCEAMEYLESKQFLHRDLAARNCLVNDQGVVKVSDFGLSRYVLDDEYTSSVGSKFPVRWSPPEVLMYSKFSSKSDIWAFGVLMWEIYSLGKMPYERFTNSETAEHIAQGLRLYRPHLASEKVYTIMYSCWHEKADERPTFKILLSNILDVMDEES

[11] = molecular target: Calcium/calmodulin-dependent protein kinase type 1 (Homo sapiens) (UniProt Q14012); assay: Inhibition of recombinant human CaMK1 (2 to end residues) assessed as residual activity at 10 uM using […] as substrate measured after 40 mins in presence of [gamma33P]ATP by scintillation counting method
[12] = molecular target: Ephrin type-A receptor 5 (Homo sapiens) (UniProt P54756); assay: Inhibition of recombinant human EphA5 (655 to 956 residues) assessed as residual activity at 10 uM using poly(Glu, Tyr) 4:1 as substrate measured after 40 mins in presence of [gamma33P]ATP by scintillation counting method
Chain of Ephrin type-A receptor 5 (Homo sapiens) (P54756 whole entry, the tested form may be a part): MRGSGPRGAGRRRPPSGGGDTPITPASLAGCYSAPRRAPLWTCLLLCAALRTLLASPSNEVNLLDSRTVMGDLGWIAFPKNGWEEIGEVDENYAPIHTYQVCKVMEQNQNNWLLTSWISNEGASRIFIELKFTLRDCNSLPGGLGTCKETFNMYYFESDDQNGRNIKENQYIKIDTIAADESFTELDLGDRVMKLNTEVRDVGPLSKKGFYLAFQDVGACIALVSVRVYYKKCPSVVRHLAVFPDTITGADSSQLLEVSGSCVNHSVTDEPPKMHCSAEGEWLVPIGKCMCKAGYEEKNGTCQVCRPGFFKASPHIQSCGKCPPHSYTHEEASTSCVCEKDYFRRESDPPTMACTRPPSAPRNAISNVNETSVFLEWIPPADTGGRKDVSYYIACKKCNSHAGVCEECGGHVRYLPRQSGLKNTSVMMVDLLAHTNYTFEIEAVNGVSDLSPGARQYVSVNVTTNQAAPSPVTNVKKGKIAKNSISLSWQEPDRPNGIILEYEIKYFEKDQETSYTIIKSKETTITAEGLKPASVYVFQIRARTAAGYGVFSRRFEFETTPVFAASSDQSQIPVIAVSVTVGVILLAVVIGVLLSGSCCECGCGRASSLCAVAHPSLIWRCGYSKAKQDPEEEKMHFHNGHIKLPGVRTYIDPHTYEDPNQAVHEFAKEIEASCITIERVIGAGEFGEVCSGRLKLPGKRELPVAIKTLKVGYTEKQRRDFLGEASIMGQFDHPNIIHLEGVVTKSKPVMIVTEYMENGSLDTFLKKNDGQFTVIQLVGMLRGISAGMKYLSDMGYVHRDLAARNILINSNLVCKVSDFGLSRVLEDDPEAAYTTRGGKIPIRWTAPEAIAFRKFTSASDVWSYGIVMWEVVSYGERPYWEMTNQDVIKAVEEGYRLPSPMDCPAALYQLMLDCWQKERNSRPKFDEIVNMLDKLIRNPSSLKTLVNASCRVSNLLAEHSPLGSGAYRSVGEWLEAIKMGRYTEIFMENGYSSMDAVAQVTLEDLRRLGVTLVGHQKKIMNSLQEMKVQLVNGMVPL

HCT-116 = assay: Induction of cell cycle arrest in human HCT116 cells assessed as accumulation at G2/M phase after 24 hrs by propidium iodide-staining based flow cytometry; type: functional
[13] = Toxicity in nude BALB/c mouse xenografted with human HCT116 cells assessed as change in body weight at 40 mg/kg, po administered once daily for 4 weeks measured every 3 days during compound dosing; type: organism-based; settings: in vivo
[14] = Cardiotoxicity in nude BALB/c mouse at 80 mg/kg, po administered once daily for 4 weeks measured post-last dose by hematoxylin and eosin staining-based assay; type: toxicity, organism-based; settings: in vivo, 672 h
[15] = molecular target: Mitogen-activated protein kinase 1 (Homo sapiens) (UniProt P28482); assay: Inhibition of human MAPK2 assessed as residual activity at 10 uM
[16] = molecular target: Ribosomal protein S6 kinase alpha-5 (Homo sapiens) (UniProt O75582); assay: Inhibition of recombinant human MSK1 (2 to end residues) assessed as residual activity at 10 uM using GRPRTSSFAEGKK as substrate measured after 40 mins in presence of [gamma33P]ATP by scintillation counting method
[17] = molecular target: SRSF protein kinase 3 (Homo sapiens) (UniProt Q9UPE1); assay: Inhibition of recombinant full-length human MSSK1 assessed as residual activity at 10 uM using ERMRPRKRQGSVRRRV as substrate measured after 40 mins in presence of [gamma33P]ATP by scintillation counting method
Chain of SRSF protein kinase 3 (Homo sapiens) (Q9UPE1 whole entry, the tested form may be a part): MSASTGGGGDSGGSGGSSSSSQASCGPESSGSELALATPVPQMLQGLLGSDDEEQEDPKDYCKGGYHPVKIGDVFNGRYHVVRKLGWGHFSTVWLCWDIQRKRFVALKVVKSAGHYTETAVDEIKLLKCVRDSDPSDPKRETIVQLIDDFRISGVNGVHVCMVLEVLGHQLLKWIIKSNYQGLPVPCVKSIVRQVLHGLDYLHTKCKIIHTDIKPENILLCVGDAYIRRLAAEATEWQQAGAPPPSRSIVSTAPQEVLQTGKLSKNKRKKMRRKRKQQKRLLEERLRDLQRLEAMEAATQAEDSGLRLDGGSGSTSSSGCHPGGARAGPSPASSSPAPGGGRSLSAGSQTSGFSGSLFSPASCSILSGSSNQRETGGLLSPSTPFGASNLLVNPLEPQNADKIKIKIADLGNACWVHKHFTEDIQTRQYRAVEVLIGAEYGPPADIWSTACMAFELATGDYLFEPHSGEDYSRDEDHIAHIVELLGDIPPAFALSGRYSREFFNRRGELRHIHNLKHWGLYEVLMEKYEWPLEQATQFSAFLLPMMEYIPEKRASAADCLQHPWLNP

[18] = molecular target: Receptor-interacting serine/threonine-protein kinase 1 (Homo sapiens) (UniProt Q13546); assay: Inhibition of human RIPK1 (8 to 322 residues) using myelin basic protein as substrate measured after 120 mins in presence of [gamma33P]ATP by scintillation counting method; set-up: scale not given: the % may be the effect or the level left
Chain of Receptor-interacting serine/threonine-protein kinase 1 (Homo sapiens) (Q13546 whole entry, the tested form may be a part): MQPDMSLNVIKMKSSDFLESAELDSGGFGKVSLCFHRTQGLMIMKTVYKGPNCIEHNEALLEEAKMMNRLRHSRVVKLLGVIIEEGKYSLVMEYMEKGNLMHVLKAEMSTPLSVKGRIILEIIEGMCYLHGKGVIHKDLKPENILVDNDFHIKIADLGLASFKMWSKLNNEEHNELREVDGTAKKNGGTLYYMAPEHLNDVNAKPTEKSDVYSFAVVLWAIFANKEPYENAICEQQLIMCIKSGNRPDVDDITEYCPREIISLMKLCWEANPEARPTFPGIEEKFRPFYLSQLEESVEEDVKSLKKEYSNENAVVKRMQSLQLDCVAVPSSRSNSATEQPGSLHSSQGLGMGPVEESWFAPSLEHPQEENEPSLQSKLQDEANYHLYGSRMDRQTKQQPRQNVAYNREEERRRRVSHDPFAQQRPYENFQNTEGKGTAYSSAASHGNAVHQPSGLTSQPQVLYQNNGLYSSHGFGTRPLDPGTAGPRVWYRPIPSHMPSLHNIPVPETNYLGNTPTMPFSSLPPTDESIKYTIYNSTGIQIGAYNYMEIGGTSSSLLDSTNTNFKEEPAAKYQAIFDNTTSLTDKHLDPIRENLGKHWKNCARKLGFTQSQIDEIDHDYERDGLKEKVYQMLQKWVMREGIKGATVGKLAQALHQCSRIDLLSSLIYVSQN

[19] = molecular target: Receptor-interacting serine/threonine-protein kinase 2 (Homo sapiens) (UniProt O43353); assay: Inhibition of human RIPK2 (1 to 299 residues) using myelin basic protein as substrate measured after 120 mins in presence of [gamma33P]ATP by scintillation counting method; set-up: scale not given: the % may be the effect or the level left
[20] = tested on: SNF-related serine/threonine-protein kinase (Homo sapiens), Q9NRH2 [UNDEFINED MUTATION]; assay: Inhibition of human SNRK E97G/P116A mutant (65 to 409 residues) using KKLRRTLSFAEPG as substrate measured after 40 mins in presence of [gamma33P]ATP by scintillation counting method; set-up: scale not given: the % may be the effect or the level left
Chain of SNF-related serine/threonine-protein kinase (Homo sapiens), Q9NRH2 [UNDEFINED MUTATION] (Q9NRH2 whole entry, looked up, stated change not applied, the tested form may be a part): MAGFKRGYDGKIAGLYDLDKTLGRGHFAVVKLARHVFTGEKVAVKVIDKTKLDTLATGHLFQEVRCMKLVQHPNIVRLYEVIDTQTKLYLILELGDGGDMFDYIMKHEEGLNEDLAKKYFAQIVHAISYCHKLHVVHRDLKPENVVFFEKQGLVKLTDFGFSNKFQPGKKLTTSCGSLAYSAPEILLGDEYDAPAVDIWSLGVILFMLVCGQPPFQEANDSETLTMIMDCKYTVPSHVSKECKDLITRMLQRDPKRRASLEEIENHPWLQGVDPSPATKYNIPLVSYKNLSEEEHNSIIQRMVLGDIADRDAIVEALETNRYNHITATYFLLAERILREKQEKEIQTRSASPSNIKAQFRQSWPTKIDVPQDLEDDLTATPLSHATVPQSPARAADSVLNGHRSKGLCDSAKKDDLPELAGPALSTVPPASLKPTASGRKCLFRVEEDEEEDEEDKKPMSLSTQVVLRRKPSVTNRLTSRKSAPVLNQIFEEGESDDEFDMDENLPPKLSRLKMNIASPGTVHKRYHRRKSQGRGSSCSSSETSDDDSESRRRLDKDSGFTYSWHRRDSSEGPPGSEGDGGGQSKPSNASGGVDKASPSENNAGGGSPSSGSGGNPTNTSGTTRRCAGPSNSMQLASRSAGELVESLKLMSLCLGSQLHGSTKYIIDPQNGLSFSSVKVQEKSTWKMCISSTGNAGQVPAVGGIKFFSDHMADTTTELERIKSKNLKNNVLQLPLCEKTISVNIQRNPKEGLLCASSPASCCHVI

[21] = molecular target: Tyrosine-protein kinase SYK (Homo sapiens) (UniProt P43405); assay: Inhibition of recombinant full-length human Syk assessed as residual activity at 10 uM using poly(Glu, Tyr) 4:1 as substrate measured after 120 mins in presence of [gamma33P]ATP by scintillation counting method
[22] = molecular target: Mitogen-activated protein kinase kinase kinase 7 (Homo sapiens) (UniProt O43318); assay: Inhibition of human TAK1 (1 to 303 residues) using casein as substrate measured after 40 mins in presence of [gamma33P]ATP by scintillation counting method; set-up: scale not given: the % may be the effect or the level left

Q: Which results are given for `Cc1cc(C)c(CNc2nc(Cl)nc3c2ncn3C2CCCC2)c(=O)[nH]1`?
A: IC50 (MDA-MB-231): 200 nM; Activity [1]: 109%; Activity [2]: 104%; Activity [3]: 99.5%; Activity [4]: 99%; Activity [5]: 105%; Activity [6]: 102%; Activity (Homo sapiens [7]): 109%; Activity (Mus musculus): 99%; Activity [8]: 100%; Activity (Homo sapiens [9]): 123%; Activity [10]: 85%; Activity [11]: 109%; Activity [12]: 99%; Activity (HCT-116): Dose-dependent effect; Activity [13]: Non-Toxic; Activity [14]: Non-Toxic; Activity [15]: 104%; Activity [16]: 112%; Activity [17]: 130%; Activity [18]: 92%; Activity [19]: 106%; Activity [20]: 111%; Activity [21]: 123%; Activity [22]: 98.5%
